{
  "source": "patent US8501777B2",
  "about": "“3,5-disubstituted phenyl-piperidines as modulators of dopamine neurotransmission” (NSAB, Filial AF Neurosearch Sweden AB, Sverige, priority 2005, dated 2013)",
  "key": {"[1]": {"test_system": "rats pretreated with d-amphetamine", "assay": "Reduction of amphetamine-induced hyper-locomotion", "type": "in vivo, rat", "conditions": "read-out: ED50 amf (reduction of amphetamine-induced hyper-locomotion, estimated ED50 values)", "procedure": "In this model, dopaminergic neurotransmission is increased by systemic administration of d-amphetamine at a dose that is sufficiently high to produce a large increase in locomotor activity. The ability of a compound to antagonize this hyperactivity reflects anti-dopaminergic properties, which are part of the dopaminergic stabiliser profile.\nBehavioural activity was measured using eight Digiscan activity monitors (RXYZM (16) TAO, Omnitech Electronics, Columbus, Ohio, USA), connected to an Omnitech Digiscan analyzer and a Apple Macintosh computer equipped with a digital interface board (NB DIO-24, National Instruments, USA). Each activity monitor consisted of a quadratic metal frame (W×L 40×40 cm) equipped with photobeam sensors. During measurements of behavioural activity, a rat was put in a transparent acrylic cage (W×L×H, 40×40×30 cm) which in turn was placed in the activity monitor. Each activity monitor was equipped with three rows of infrared photobeam sensors, each row consisting of 16 sensors. Two rows were placed along the front and the side of the floor of the cage, at a 90° angle, and the third row was placed 10 cm above the floor to measure vertical activity. Photobeam sensors were spaced 2.5 cm apart. Each activity monitor was fitted in an identical sound and light attenuating box containing a weak house light and a fan.\nBehavioural data from each activity monitor, representing the position (horizontal centre of gravity and vertical activity) of the animal at each time, were recorded at a sampling frequency of 25 Hz and collected using a custom written LABView™ application. The data from each recording session were stored and analyzed with respect to distance traveled. Each behavioural recording session lasted 60 min, starting approximately 4 min after the injection of test compound. […] The results are presented as counts/60 minutes, or counts/30 minutes, in arbitrary length units. Statistical comparisons were carried out using student's t-test vs the control group.\nFor most compounds, the evaluation is based on 16 amphetamine pre-treated animals over the dose range 0, 11, 33 and 100 μmol/kg s.c. in one single experiment, with complementary doses in separate experiments. Calculations are based on distance during the last 45 minutes of one hour of measurement. […] To estimate confidence levels for the parameters, the fit is repeated 100 times with a random evenly distributed squared weight (0 to 1) for every measurement value."}, "[2]": {"assay": "Metabolic stability in rat liver microsomes", "type": "in vitro ADME", "conditions": "15 min incubation at 37° C., NADPH", "procedure": "Rat liver microsomes were isolated as described by Forlin (1980) Effects of Clophen A50, 3-methylcholantrene, pregnenolone-16aq-carbonitrile and Phenobarbital on the hepatic microsomal cytochrome P-450-dependent monooxygenaser system in rainbow trout, salmo garirdneri, of different age and sex. Tox Appl Pharm. […]\n1 μL of, 0.2 or 1 mM test substance diluted in water and 10 μL 20 mg/mL rat liver micro-some were mixed with 149 μL 37° C. buffer 1 and the reaction was started by addition of 40 μL 4.1 mg/mL NADPH. […] The test compound was analysed using HPLC-MS (Hewlett-Packard 1100MSD Series) with a Zorbax SB-C18 column (2.1*150 mm, 5 μm) using 0.03% formic acid and acetonitrile as mobile phase (gradient) or a Zorbax Eclipse XDB-C18 (3*75 mm, 3.5 μm) using 0.03% acetic acid and acetonitrile as mobile phase (gradient). The 15 min turnover was calculated as the fraction of test compound eliminated after 15 minutes, expressed in percent of 0 min levels, ie 100*[conc test compound at 0 min−concentration at 15 min]/conc at 0 min."}, "MK-801 pre-treated rats": {"test_system": "MK-801 pre-treated rats", "assay": "Locomotor activity in MK-801 pre-treated rats", "type": "in vivo, rat", "conditions": "MK-801 0.7 mg/kg i.p. 90 min before test compound, recorded 30-60 min after administration", "procedure": "Another animal model of antipsychotic activity is based on administration of the glutamate antagonist MK-801. Glutamate antagonists (i.e. NMDA antagonists), can induce psychoses in man (see Psychopharmacology, 4th Generation of progress Chapter 101, p. 1205 and 1207) and induce behavioural aberrations in animals. […] In this study the NMDA antagonist MK-801 (0.7 mg/kg i.p.) was used to create a hypoglutamatergic state where the rats display abnormal, hyperactive behaviour. Compounds in the present invention dose-dependently reverse the behavioural aberration induced by MK-801 (see Table 2).\nBehavioural activity was measured using eight Digiscan activity monitors (RXYZM (16) TAO, Omnitech Electronics, Columbus, Ohio, USA), connected to an Omnitech Digiscan analyzer and a Apple Macintosh computer equipped with a digital interface board (NB DIO-24, National Instruments, USA). Each activity monitor consisted of a quadratic metal frame (W×L 40×40 cm) equipped with photobeam sensors. […]\nBehavioural data from each activity monitor, representing the position (horizontal centre of gravity and vertical activity) of the animal at each time, were recorded at a sampling frequency of 25 Hz and collected using a custom written LABView™ application. The data from each recording session were stored and analyzed with respect to distance traveled. […]"}, "hERG ion channel": {"target": "hERG ion channel (Homo sapiens, UniProt Q12809)", "sequence (Q12809 whole entry)": "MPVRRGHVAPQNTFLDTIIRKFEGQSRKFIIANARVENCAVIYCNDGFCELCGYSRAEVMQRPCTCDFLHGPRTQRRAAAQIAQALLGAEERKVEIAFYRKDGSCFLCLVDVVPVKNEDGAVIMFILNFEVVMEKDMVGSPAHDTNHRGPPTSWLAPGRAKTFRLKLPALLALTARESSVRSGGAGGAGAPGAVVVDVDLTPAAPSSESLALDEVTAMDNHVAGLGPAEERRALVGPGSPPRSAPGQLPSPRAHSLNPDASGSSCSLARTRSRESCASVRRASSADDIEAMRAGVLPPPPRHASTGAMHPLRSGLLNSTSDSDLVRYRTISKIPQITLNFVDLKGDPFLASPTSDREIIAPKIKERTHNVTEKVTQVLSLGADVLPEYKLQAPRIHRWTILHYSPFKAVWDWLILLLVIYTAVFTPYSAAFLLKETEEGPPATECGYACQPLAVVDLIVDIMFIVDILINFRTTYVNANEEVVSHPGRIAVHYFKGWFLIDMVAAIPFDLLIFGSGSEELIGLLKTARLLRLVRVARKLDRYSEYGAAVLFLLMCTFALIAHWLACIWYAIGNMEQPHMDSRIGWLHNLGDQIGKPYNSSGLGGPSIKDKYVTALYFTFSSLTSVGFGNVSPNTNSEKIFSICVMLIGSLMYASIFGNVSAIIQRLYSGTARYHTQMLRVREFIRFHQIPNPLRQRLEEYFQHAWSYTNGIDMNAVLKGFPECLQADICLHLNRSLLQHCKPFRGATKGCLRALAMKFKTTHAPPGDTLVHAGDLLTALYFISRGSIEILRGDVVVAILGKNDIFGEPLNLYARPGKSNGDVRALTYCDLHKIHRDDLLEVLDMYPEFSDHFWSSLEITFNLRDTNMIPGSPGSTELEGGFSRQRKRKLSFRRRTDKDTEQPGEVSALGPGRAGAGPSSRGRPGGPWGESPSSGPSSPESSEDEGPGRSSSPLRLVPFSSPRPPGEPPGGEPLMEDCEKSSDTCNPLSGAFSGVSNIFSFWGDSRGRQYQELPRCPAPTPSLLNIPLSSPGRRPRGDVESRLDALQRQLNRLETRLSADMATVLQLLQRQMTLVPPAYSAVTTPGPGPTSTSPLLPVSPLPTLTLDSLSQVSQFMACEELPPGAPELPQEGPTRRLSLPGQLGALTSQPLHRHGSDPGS", "assay": "hERG affinity by Rapid ICE automated patch-clamp (HEK293 cells stably transfected with HERG cDNA)", "description": "Rapid ICE™ (Rapid Ion Channel Electrophysiology) is an automated patch-clamp assay utilising the PatchXpress 7000A system (Axon Instruments). Rapid ICE™ assesses the effect of test substances on HERG tail current recorded from HEK293 cells stably transfected with HERG cDNA.\nHERG.T.HEK (HEK293 cells stably transfected with HERG cDNA) were obtained from the University of Wisconsin. These cells are held in cryogenic storage at Quintiles and also maintained in culture. The cells are continuously maintained in and passaged using minimum essential medium supplemented with 10% foetal bovine serum, 1% non-essential amino acids, 1% sodium pyruvate and 0.4 mg/ml geneticin. For use in Rapid ICE™ studies, 4 ml of the cells are placed into falcon tubes at a density of 2.5×10^5/ml. The falcon tubes are stored in a humidified, gassed (5% CO2) incubator at 37° C. and cells are used within 2.5 h of storage. Just prior to experimentation, these cells are centrifuged at 1000 rpm for 1 min, the supernatant decanted and the cells re-suspended in 150 μl of bath solution in a 1.5 ml eppendorf tube.\nThe PatchXpress system is primed with appropriate extracellular (bath) and intracellular (pipette) solutions prior to conducting a study. A 16 well sealchip (Sealchip16, Aviva Bio-sciences Corp) is loaded into the system and primed before preparing cells in the bath solution suspension. The cell eppendorf is placed into the designated position and the procedure commences with the trituration and dispersion of cells into each well (recording chamber) of the sealchip. The PatchXpress system follows the general principles of conventional whole-cell patch-clamping: a high resistance seal is formed between the patch electrode and an individual cell, the membrane across the electrode tip is ruptured and the whole-cell patch-clamp configuration is established. If the quality of the cell is judged to be poor, the experiment may be terminated at this point and if necessary, the process repeated on another sealchip.\nOnce a stable patch has been achieved, recording commences in voltage-clamp mode, with the cell initially clamped at −80 mV. The standard voltage profile is as follows: step from −80 mV to −50 mV for 200 ms, +20 mV for 4.8 s, step to −50 mV for 5 s then step to the holding potential of −80 mV. The step from −80 mV to the test command (+20 mV) results in an outward current (i.e. current flows out of the cell) and the step from the test command (+20 mV) to −50 mV results in the tail current (the tail current represents deactivation of the current over time). […] Each value represents the average current recorded from 4 sequential voltage pulses. For each cell the effects of the test substance is determined by calculating the residual current (% control) compared with vehicle pre-treatment. […]"}, "[3]": {"test_system": "3,4 dihydroxyphenylacetic acid (DOPAC) in striatum", "assay": "In vivo neurochemistry: DOPAC in striatum", "conditions": "rat, 100 μmol/kg s.c.", "source_text": "After the behavioural activity sessions, the rats were decapitated and their brains rapidly taken out and put on an ice-cold petri-dish. The limbic forebrain, the striatum, the frontal cortex and the remaining hemispheral parts of each rat were dissected and frozen. Each brain part was subsequently analyzed with respect to its content of monoamines and their metabolites.\nThe monoamine transmitter substances (NA (noradrenaline), DA (dopamine), 5-HT (serotonin)) as well as their amine (NM (normethanephrine), 3-MT (3-methoxytyramine)) and acid (DOPAC (3,4-dihydroxyphenylacetic acid), 5-HIAA (5-hydroxyindoleacetic acid), HVA (homovanillic acid)) metabolites are quantified in brain tissue homogenates by HPLC separations and electrochemical detection.\nThe analytical method is based on two chromatographic separations dedicated for amines or acids. Two chromatographic systems share a common auto injector with a 10-port valve and two sample loops for simultaneous injection on the two systems. Both systems are equipped with a reverse phase column (Luna C18(2), dp 3μ, 50*2 mm i.d., Phenomenex) and electrochemical detection is accomplished at two potentials on glassy carbon electrodes (MF-1000, Bioanalytical Systems, Inc.). Via a T-connection the column effluent is passed to the detection cell or to waste. […]"}, "[4]": {"assay": "Oral bioavailability in rat", "type": "in vivo", "conditions": "plasma, oral 12.5 μmol/kg vs i.v. 5 μmol/kg, AUC ratio", "procedure": "Experiments are performed 24 hours after implantation of arterial and venous catheters. Test compound is administered orally at 12.5 μmol/kg or intravenously at 5 μmol/kg using the venous catheters, n=3 per group. Arterial blood samples are then taken during […] at 0, 3, 9, 27, 60, 120, 180, 240, 300 and, 360 minutes after administration of the test compound. The oral bioavailability was calculated as the ratio of the AUC (Area under curve) obtained after oral administration over the AUC obtained after intravenous administration for each rat. The parameter AUC was calculated according to the following: AUC: the area under the plasma concentration versus time curve from time zero to the last concentration measured (Clast), calculated by the log/linear trapezoidal method.\nThe levels of test compound are measured by means of liquid chromatography-mass spectrometry (LC-MS). (Hewlett-Packard 1100MSD Series). The module include a quaternary pump system, vacuum degasser, thermostatted autosampler, thermostatted column compartment, diode array detector and API-ES spray chamber. […]\nExtractions procedure: Plasma samples (0.25-0.5 ml) were diluted with water to 1 ml, and 60 pmol (100 μl) internal standard (−)-OSU6241 was added. […] The selective ion (MH^+) was monitored for each Example, and MH^+ 296 for (−)-OSU6241 ((3-[3-(ethylsulfonyl)phenyl]-1-propylpiperidine). […]"}, "[5]": {"conditions": "rat, test compound s.c., d-amphetamine 1.5 mg/kg i.p., distance during last 45 min of one hour"}},
  "note": "Structures can show the parent of a compound that is named as a salt. Where two headings read alike, the source gives them in different places.",
  "data": [
    {"smiles": "CCCN1CCC(c2cccc(S(C)(=O)=O)c2)CC1", "values": [
      {"measurement": "ED50", "setting": "[1]; Rattus norvegicus", "result": 52, "unit": "µmol/kg"}
    ]},
    {"smiles": "CCCN1CCC(c2cc(F)cc(S(C)(=O)=O)c2)CC1", "note": "(as salt: hydrochloric acid salt) [Example 1, 4-[3-fluoro-5-(methylsulfonyl)phenyl]-1-propylpiperidine]", "values": [
      {"measurement": "melting point", "result": "187 to 189", "unit": "°C"}
    ]},
    {"smiles": "CCN1CCC(c2cc(F)cc(S(C)(=O)=O)c2)CC1", "note": "(as salt: hydrochloric acid salt) [Example 2, 1-ethyl-4-[3-fluoro-5-(methylsulfonyl)phenyl]piperidine]", "values": [
      {"measurement": "melting point", "result": "176 to 178", "unit": "°C"}
    ]},
    {"smiles": "CCCN1CCC(c2cc(F)cc(S(C)(=O)=O)c2)CC1", "note": "[Example 1, 4-[3-fluoro-5-(methylsulfonyl)phenyl]-1-propylpiperidine]", "values": [
      {"measurement": "Turnover at 15 minutes in rat liver microsomes", "setting": "[2]", "result": 5, "unit": "%"},
      {"measurement": "ED50", "setting": "[1]; [5]", "result": 12, "unit": "µmol/kg"},
      {"measurement": "Locomotor activity, MK + example 100 μmol/kg", "setting": "MK-801 pre-treated rats", "result": "20858 ± 4638 (P = 0.01) counts/30 min ± SEM"},
      {"measurement": "IC50", "setting": "hERG ion channel", "result": 9.8, "unit": "µM"},
      {"measurement": "DOPAC in striatum", "setting": "[3]", "result": "318 % of control"}
    ]},
    {"smiles": "CCN1CCC(c2cc(F)cc(S(C)(=O)=O)c2)CC1", "note": "[Example 2, 1-ethyl-4-[3-fluoro-5-(methylsulfonyl)phenyl]piperidine]", "values": [
      {"measurement": "Turnover at 15 minutes in rat liver microsomes", "setting": "[2]", "result": 0, "unit": "%"},
      {"measurement": "ED50", "setting": "[1]; [5]", "result": 28, "unit": "µmol/kg"},
      {"measurement": "Locomotor activity, MK + example 100 μmol/kg", "setting": "MK-801 pre-treated rats", "result": "24012 ± 5511 (P = 0.03) counts/30 min ± SEM"},
      {"measurement": "bioavailability", "setting": "[4]", "result": "~85", "unit": "%"},
      {"measurement": "IC50", "setting": "hERG ion channel", "result": 21.7, "unit": "µM"},
      {"measurement": "DOPAC in striatum", "setting": "[3]", "result": "292 % of control"}
    ]},
    {"smiles": "CCCN1CCC(c2ccc(Cl)c(C(F)(F)F)c2)CC1", "note": "[reference compound]", "values": [
      {"measurement": "ED50", "setting": "[1]; Rattus norvegicus", "result": 34, "unit": "µmol/kg"},
      {"measurement": "IC50", "setting": "hERG ion channel", "result": 0.61, "unit": "µM"}
    ]},
    {"smiles": "CCCN1CCC(c2cc(F)cc(C(F)(F)F)c2)CC1", "note": "[reference compound]", "values": [
      {"measurement": "ED50", "setting": "[1]; [5]", "result": 14, "unit": "µmol/kg"},
      {"measurement": "IC50", "setting": "hERG ion channel", "result": 1.5, "unit": "µM"}
    ]}
  ]
}
